In ChEMBL document CHEMBL1140269, “Amino-substituted heterocycles as isosteres of trans-cinnamides: design and synthesis of heterocyclic biaryl sulfides as potent antagonists of LFA-1/ICAM-1 binding” (Bioorg Med Chem Lett, 2005):
Several values for one entry are separate records, joined by “and”; a condition that tells them apart may be missing. Identical values can stand only once.

Legend:
[1] = target: Intercellular adhesion molecule (ICAM-1), Integrin alpha-L/beta-2 (Homo sapiens, UniProt P05107+P20701); assay: Inhibitory concentration against integrin LFA-1/ICAM-1 binding complex; type: protein-complex assay
[2] = target: Intercellular adhesion molecule (ICAM-1), Integrin alpha-L/beta-2 (Homo sapiens) (UniProt P20701+P05362+P05107); assay: Inhibitory activity against ICAM-1/integrin LFA-1 binding complex at 1 uM concentration; type: protein-complex assay

Chain of Intercellular adhesion molecule (ICAM-1), Integrin alpha-L/beta-2 (P20701 whole entry): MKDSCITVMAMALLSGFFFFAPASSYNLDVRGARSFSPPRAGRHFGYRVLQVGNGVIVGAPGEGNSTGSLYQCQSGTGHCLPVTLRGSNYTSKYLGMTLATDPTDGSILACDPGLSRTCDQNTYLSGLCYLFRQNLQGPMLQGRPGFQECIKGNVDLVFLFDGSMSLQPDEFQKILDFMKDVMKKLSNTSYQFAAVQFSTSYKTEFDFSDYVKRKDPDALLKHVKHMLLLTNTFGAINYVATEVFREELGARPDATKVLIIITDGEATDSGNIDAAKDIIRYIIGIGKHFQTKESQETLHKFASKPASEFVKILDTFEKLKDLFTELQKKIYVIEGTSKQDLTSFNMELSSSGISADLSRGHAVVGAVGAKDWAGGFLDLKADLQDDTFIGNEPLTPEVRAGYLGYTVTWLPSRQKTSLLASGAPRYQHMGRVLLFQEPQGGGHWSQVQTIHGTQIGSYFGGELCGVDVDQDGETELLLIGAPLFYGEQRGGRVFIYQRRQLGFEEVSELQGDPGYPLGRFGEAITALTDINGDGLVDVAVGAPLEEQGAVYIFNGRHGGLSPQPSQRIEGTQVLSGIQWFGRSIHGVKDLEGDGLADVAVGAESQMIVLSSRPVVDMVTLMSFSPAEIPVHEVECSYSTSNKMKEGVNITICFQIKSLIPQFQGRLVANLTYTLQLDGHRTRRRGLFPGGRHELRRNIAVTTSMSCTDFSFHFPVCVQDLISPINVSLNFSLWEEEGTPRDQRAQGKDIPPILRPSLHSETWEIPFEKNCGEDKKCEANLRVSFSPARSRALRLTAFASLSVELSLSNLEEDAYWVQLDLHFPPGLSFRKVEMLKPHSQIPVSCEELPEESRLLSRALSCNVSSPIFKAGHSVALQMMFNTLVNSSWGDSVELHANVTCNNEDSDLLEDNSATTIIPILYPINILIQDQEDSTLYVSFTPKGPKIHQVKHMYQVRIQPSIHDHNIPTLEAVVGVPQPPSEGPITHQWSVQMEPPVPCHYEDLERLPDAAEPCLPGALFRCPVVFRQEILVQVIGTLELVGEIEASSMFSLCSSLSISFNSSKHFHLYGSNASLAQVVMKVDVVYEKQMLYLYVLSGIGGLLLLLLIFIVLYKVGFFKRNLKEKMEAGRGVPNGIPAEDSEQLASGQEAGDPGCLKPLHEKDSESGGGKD
Chain of Intercellular adhesion molecule (ICAM-1), Integrin alpha-L/beta-2 (P05362 whole entry, further chain): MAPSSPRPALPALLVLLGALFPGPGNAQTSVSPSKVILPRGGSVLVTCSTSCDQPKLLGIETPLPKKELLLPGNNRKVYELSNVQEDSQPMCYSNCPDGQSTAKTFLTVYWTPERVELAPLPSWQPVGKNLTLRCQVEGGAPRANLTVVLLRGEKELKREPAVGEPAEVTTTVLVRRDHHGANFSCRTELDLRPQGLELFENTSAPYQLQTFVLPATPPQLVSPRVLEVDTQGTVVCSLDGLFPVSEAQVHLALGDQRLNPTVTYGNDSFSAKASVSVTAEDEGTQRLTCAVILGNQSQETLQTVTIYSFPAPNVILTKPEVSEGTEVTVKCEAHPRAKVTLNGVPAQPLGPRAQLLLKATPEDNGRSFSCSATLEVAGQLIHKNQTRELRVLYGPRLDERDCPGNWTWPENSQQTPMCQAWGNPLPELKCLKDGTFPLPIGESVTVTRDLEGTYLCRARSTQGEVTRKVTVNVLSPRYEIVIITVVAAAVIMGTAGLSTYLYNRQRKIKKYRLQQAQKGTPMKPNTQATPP
Chain of Intercellular adhesion molecule (ICAM-1), Integrin alpha-L/beta-2 (P05107 whole entry): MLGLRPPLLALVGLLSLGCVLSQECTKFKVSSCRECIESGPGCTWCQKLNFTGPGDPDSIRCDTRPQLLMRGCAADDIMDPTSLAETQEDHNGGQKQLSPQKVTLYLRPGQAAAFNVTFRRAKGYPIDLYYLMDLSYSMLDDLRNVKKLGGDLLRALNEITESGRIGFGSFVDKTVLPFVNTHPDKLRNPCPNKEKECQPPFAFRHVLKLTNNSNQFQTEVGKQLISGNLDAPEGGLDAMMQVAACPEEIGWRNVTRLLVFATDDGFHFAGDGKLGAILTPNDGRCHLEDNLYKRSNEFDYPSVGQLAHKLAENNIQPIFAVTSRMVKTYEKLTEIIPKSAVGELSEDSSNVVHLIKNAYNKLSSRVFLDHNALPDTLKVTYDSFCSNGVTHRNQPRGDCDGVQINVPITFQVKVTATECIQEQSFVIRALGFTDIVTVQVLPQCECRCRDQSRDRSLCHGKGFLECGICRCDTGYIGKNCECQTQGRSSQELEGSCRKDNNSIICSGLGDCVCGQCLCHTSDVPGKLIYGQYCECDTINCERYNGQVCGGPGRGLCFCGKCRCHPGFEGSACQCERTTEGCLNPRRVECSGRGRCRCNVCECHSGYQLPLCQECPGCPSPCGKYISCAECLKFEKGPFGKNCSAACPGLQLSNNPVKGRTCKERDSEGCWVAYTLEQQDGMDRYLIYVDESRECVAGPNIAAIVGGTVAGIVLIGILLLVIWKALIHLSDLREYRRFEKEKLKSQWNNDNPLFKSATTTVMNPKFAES

| Compound | IC50 [1] | inhibition [2] |
| --- | --- | --- |
| COc1ccccc1Sc1ccc(-c2ccnc(N3CC[C@@H](NC(C)=O)C3)c2)cc1C(F)(F)F | 88 nM | – |
| Cc1ccc(C)c(N2CCN(c3cc(-c4ccc(Sc5ccccc5C(C)C)c(C(F)(F)F)c4)ccn3)CC2)c1 | – | 0% |
| O=C(O)[C@@H]1C[C@@H](O)CN1c1cc(-c2ccc(Sc3ccc4c(c3)OCCO4)c(C(F)(F)F)c2)ccn1 | 192 nM | – |
| CC1CCN(c2cc(-c3ccc(Sc4ccccc4C(C)C)c(C(F)(F)F)c3)ccn2)CC1 | – | 40% |
| CCN(C)c1cc(-c2ccc(Sc3ccccc3C(C)C)c(C(F)(F)F)c2)ncn1 | 680 nM | – |
| CC(=O)N(C)[C@@H]1CCN(c2cc(-c3ccc(Sc4ccccc4C(C)C)c(C(F)(F)F)c3)ccn2)C1 | 112 nM | – |
| OC1CCN(c2cc(-c3ccc(Sc4ccc5c(c4)OCCO5)c(C(F)(F)F)c3)ccn2)CC1 | 300 nM | – |
| CCN(CC)C(=O)C1CCCN(c2cc(-c3ccc(Sc4ccccc4C(C)C)c(C(F)(F)F)c3)ncn2)C1 (configuration not stated) | 620 nM | – |
| NC(=O)C1CCN(c2cc(-c3ccc(Sc4ccc5c(c4)OCCO5)c(C(F)(F)F)c3)ccn2)CC1 | 140 nM | – |
| COc1ccccc1Sc1ccc(-c2ccnc(N3CCC(C(=O)O)CC3)c2)cc1C(F)(F)F | 113 nM | – |
| CC(C)c1ccccc1Sc1ccc(-c2ccnc(N3CCC(C(=O)O)CC3)c2)cc1C(F)(F)F | 42 nM and 50 nM | – |
| CC(C)c1ccccc1Sc1ccc(-c2cc(N3CCC(C(=O)O)CC3)ncn2)cc1C(F)(F)F | 120 nM | – |
| CC(=O)NC1CCN(c2cc(-c3ccc(Sc4ccccc4C(C)C)c(C(F)(F)F)c3)ncn2)C1 (configuration not stated) | 220 nM | – |
| CC(C)c1ccccc1Sc1ccc(-c2cc(N3CCC(CCO)CC3)ncn2)cc1C(F)(F)F | 230 nM | – |
| CC(C)c1ccccc1Sc1ccc(-c2ccnc(N3CCCCCC3)c2)cc1C(F)(F)F | – | 34% |
| COc1ccccc1Sc1ccc(-c2ccnc(N3CCCC(C(=O)O)C3)c2)cc1C(F)(F)F (configuration not stated) | 122 nM | – |
| COCCCNc1nc(-c2ccc(Sc3ccccc3C(C)C)c(C(F)(F)F)c2)cs1 | 10500 nM | – |
| COc1ccccc1Sc1ccc(-c2ccnc(N3CCC(CCO)CC3)c2)cc1C(F)(F)F | 111 nM | – |
| CCCC1CCN(c2cc(-c3ccc(Sc4ccccc4C(C)C)c(C(F)(F)F)c3)ccn2)CC1 | – | 8% |
| CCN(C(C)=O)C1CCN(c2cc(-c3ccc(Sc4ccccc4C(C)C)c(C(F)(F)F)c3)ncn2)C1 (configuration not stated) | 300 nM | – |
| CC(C)c1ccccc1Sc1ccc(-c2cc(N3CCN(c4ccccn4)CC3)ncn2)cc1C(F)(F)F | 1270 nM | – |
| O=C(O)C1CCN(c2cc(-c3ccc(Sc4ccc5c(c4)OCCO5)c(C(F)(F)F)c3)ccn2)CC1 | 71 nM and 50 nM | – |

| Compound | IC50 [1] | inhibition [2] |
| --- | --- | --- |
| CC(C)c1ccccc1Sc1ccc(-c2coc(N3CCCCC3)n2)cc1C(F)(F)F | 15000 nM | – |
| COc1ccccc1Sc1ccc(-c2ccnc(N3CCN(C=O)CC3)c2)cc1C(F)(F)F | 186 nM | – |
| CC(C)c1ccccc1Sc1ccc(-c2ccnc(N3CCC(CCO)CC3)c2)cc1C(F)(F)F | 160 nM | – |
| CC(=O)N(C)[C@@H]1CCN(c2cc(-c3ccc(Sc4ccc5c(c4)OCCO5)c(C(F)(F)F)c3)ccn2)C1 | 168 nM | – |
| CC(=O)N1CCN(c2cc(-c3ccc(Sc4ccccc4C(C)C)c(C(F)(F)F)c3)ncn2)CC1 | 60 nM and 200 nM | – |
| CC1CN(c2cc(-c3ccc(Sc4ccccc4C(C)C)c(C(F)(F)F)c3)ncn2)CC(C)O1 (configuration not stated) | 490 nM | – |
| CC(C)c1ccccc1Sc1ccc(-c2ccnc(N3CCN(C)CC3)c2)cc1C(F)(F)F | – | 58% |
| COc1ccccc1Sc1ccc(-c2ccnc(N3CCC[C@H]3C(=O)O)c2)cc1C(F)(F)F | 80 nM | – |
| CC(C)c1ccccc1Sc1ccc(-c2cc(N3CCOCC3)ncn2)cc1C(F)(F)F | 80 nM and 320 nM | – |
| COc1ccccc1Sc1ccc(-c2ccnc(N3CC[C@@H](N(C)C(C)=O)C3)c2)cc1C(F)(F)F | 88 nM | – |
| OCCC1CCN(c2cc(-c3ccc(Sc4ccc5c(c4)OCCO5)c(C(F)(F)F)c3)ccn2)CC1 | 132 nM | – |
| COc1ccccc1Sc1ccc(-c2ccnc(N3CCN(C(C)=O)CC3)c2)cc1C(F)(F)F | 121 nM | – |
| CC(C)c1ccccc1Sc1ccc(-c2ccnc(N3CCCC(C)(C)C3)c2)cc1C(F)(F)F | – | 22% |
| CCOC(=O)CN1CCN(c2cc(-c3ccc(Sc4ccccc4C(C)C)c(C(F)(F)F)c3)ncn2)CC1 | 420 nM | – |
| CC(C)c1ccccc1Sc1ccc(-c2ccnc(N3CC[C@@H](O)[C@H](C(=O)O)C3)c2)cc1C(F)(F)F | 43 nM | – |
| CC(C)c1ccccc1Sc1ccc(-c2ccnc(N3CCN(C=O)CC3)c2)cc1C(F)(F)F | 165 nM | – |
| CC(C)c1ccccc1Sc1ccc(-c2cc(N3CCCC(C(N)=O)C3)ncn2)cc1C(F)(F)F (configuration not stated) | 340 nM | – |
| CC(C)c1ccccc1Sc1ccc(-c2ccnc(N3CCC(O)CC3)c2)cc1C(F)(F)F | 76 nM | – |
| CC(=O)N1CCCN(c2cc(-c3ccc(Sc4ccc5c(c4)OCCO5)c(C(F)(F)F)c3)ccn2)CC1 | 365 nM | – |
| CC(C)c1ccccc1Sc1ccc(-c2cc(N3CCCC3CO)ncn2)cc1C(F)(F)F (stereo in doubt; 10w) | 680 nM | – |
| CC(C)c1ccccc1Sc1ccc(-c2ccnc(N3CCC[C@H]3CO)c2)cc1C(F)(F)F (stereo in doubt; 16x) | 264 nM | – |
| CC(=O)N[C@@H]1CCN(c2cc(-c3ccc(Sc4ccccc4C(C)C)c(C(F)(F)F)c3)ccn2)C1 | 62 nM | – |

| Compound | IC50 [1] | inhibition [2] |
| --- | --- | --- |
| CC(=O)N[C@@H]1CCN(c2cc(-c3ccc(Sc4ccc5c(c4)OCCO5)c(C(F)(F)F)c3)ccn2)C1 | 112 nM | – |
| CCOC(=O)N1CCN(c2cc(-c3ccc(Sc4ccccc4C(C)C)c(C(F)(F)F)c3)ncn2)CC1 | 470 nM | – |
| CC(C)c1ccccc1Sc1ccc(-c2ccnc(N3CCC(O)C3)c2)cc1C(F)(F)F (configuration not stated) | 93 nM | – |
| OC[C@H]1CCCN1c1cc(-c2ccc(Sc3ccc4c(c3)OCCO4)c(C(F)(F)F)c2)ccn1 | 510 nM | – |
| CC(C)c1ccccc1Sc1ccc(-c2ccnc(N3CCCCC3)c2)cc1C(F)(F)F | 1000 nM | – |
| CC(C)c1ccccc1Sc1ccc(-c2cc(N3CCCC3CO)ncn2)cc1C(F)(F)F (stereo in doubt) | 480 nM | – |
| CC(C)c1ccccc1Sc1ccc(-c2ccnc(N3C[C@H](O)C[C@H]3C(=O)O)c2)cc1C(F)(F)F | 90 nM | – |
| CC(=O)N1CCN(c2cc(-c3ccc(Sc4ccc5c(c4)OCCO5)c(C(F)(F)F)c3)ccn2)CC1 | 131 nM and 60 nM | – |
| CC(C)c1ccccc1Sc1ccc(-c2ccnc(N3CCCC(C(=O)O)C3)c2)cc1C(F)(F)F (stereo in doubt) | 30 nM | – |
| CC(C)c1ccccc1Sc1ccc(-c2ccnc(N3CCCC3)c2)cc1C(F)(F)F | 250 nM | – |
| CC(C)c1ccccc1Sc1ccc(-c2cc(N3CCC(C(N)=O)CC3)ncn2)cc1C(F)(F)F | 230 nM | – |
| CC(C)c1ccccc1Sc1ccc(-c2cc(NCCCn3ccnc3)ncn2)cc1C(F)(F)F | 760 nM | – |
| O=C(O)C1CCCN(c2cc(-c3ccc(Sc4ccc5c(c4)OCCO5)c(C(F)(F)F)c3)ccn2)C1 (stereo in doubt) | 30 nM | – |
| CC(=O)N1CCN(C(=O)/C=C/c2ccc(Sc3ccccc3C(C)C)c(C(F)(F)F)c2)CC1 | 60 nM | – |
| CC(C)c1ccccc1Sc1ccc(-c2ccnc(N3CCC(CO)CC3)c2)cc1C(F)(F)F | 160 nM | – |
| COc1ccccc1Sc1ccc(-c2ccnc(N3CCC(CO)CC3)c2)cc1C(F)(F)F | 80 nM | – |
| CC(C)c1ccccc1Sc1ccc(-c2cc(N3CCC(O)CC3)ncn2)cc1C(F)(F)F | 228 nM | – |
| CC(C)c1ccccc1Sc1ccc(-c2cc(N3CCC(c4nn[nH]n4)CC3)ncn2)cc1C(F)(F)F | 108 nM | – |
| COc1ccccc1Sc1ccc(-c2ccnc(N3CCC(O)CC3)c2)cc1C(F)(F)F | 128 nM | – |
| O=C(O)[C@@H]1CCCN1c1cc(-c2ccc(Sc3ccc4c(c3)OCCO4)c(C(F)(F)F)c2)ccn1 | 147 nM | – |
| CC(C)c1ccccc1Sc1ccc(-c2ccnc(N3CCC(C(N)=O)CC3)c2)cc1C(F)(F)F | 73 nM | – |
| O=C(O)C1CCCN(c2cc(-c3ccc(Sc4ccc5c(c4)OCCO5)c(C(F)(F)F)c3)ccn2)C1 (stereo in doubt; 18L) | 76 nM | – |

| Compound | IC50 [1] | inhibition [2] |
| --- | --- | --- |
| COc1ccccc1Sc1ccc(-c2ccnc(N3C[C@H](O)C[C@H]3C(=O)O)c2)cc1C(F)(F)F | 214 nM | – |
| CC(C)c1ccccc1Sc1ccc(-c2ccnc(N3CCCC(C(=O)O)C3)c2)cc1C(F)(F)F (stereo in doubt; 16k) | 43 nM | – |
| O[C@@H]1CCN(c2cc(-c3ccc(Sc4ccc5c(c4)OCCO5)c(C(F)(F)F)c3)ccn2)C1 | 126 nM | – |
| CC(C)c1ccccc1Sc1ccc(-c2ccnc(N3CCC[C@H]3CO)c2)cc1C(F)(F)F (stereo in doubt) | 480 nM | – |
| COc1ccccc1Sc1ccc(-c2ccnc(N3CC[C@@H](O)C3)c2)cc1C(F)(F)F | 77 nM | – |
| COc1ccccc1Sc1ccc(-c2ccnc(N3CCCN(C(C)=O)CC3)c2)cc1C(F)(F)F | 168 nM | – |
| OCC1CCN(c2cc(-c3ccc(Sc4ccc5c(c4)OCCO5)c(C(F)(F)F)c3)ccn2)CC1 | 390 nM | – |
| COc1ccccc1Sc1ccc(-c2ccnc(N3CCC[C@@H]3CO)c2)cc1C(F)(F)F | 331 nM | – |
| CC(C)c1ccccc1Sc1ccc(-c2csc(NCCN3CCOCC3)n2)cc1C(F)(F)F | 12000 nM | – |
| CC(C)c1ccccc1Sc1ccc(-c2ccnc(N3CCC(c4nnn[nH]4)CC3)c2)cc1C(F)(F)F | 51 nM | – |
| CCCN1CCN(c2cc(-c3ccc(Sc4ccccc4OC)c(C(F)(F)F)c3)ccn2)CC1 | 900 nM | – |
| CC(C)c1ccccc1Sc1ccc(-c2cc(N3CC[C@@H](O)C3)ncn2)cc1C(F)(F)F | 158 nM | – |
| O=CN1CCN(c2cc(-c3ccc(Sc4ccc5c(c4)OCCO5)c(C(F)(F)F)c3)ccn2)CC1 | 351 nM | – |
| CCCN1CCN(c2cc(-c3ccc(Sc4ccc5c(c4)OCCO5)c(C(F)(F)F)c3)ccn2)CC1 | 747 nM | – |
| COc1ccccc1Sc1ccc(-c2ccnc(N3CCC(C(N)=O)CC3)c2)cc1C(F)(F)F | 140 nM | – |
| CC(=O)N1CCN(c2cc(-c3ccc(Sc4ccccc4C(C)C)c(C(F)(F)F)c3)ccn2)CC1 | 93 nM and 60 nM | – |
| CC(C)c1ccccc1Sc1ccc(-c2cc(N3CCC(NC(=O)OC(C)(C)C)C3)ncn2)cc1C(F)(F)F (configuration not stated) | 550 nM | – |
| CC(C)c1ccccc1Sc1ccc(-c2coc(N3CCOCC3)n2)cc1C(F)(F)F | 3600 nM | – |
| CC(C)c1ccccc1Sc1ccc(-c2ccnc(N3CCC[C@H]3C(=O)O)c2)cc1C(F)(F)F | 26 nM | – |
| CC(C)c1ccccc1Sc1ccc(-c2cc(N3CCCC(CO)C3)ncn2)cc1C(F)(F)F (configuration not stated) | 230 nM | – |
| CC(C)c1ccccc1Sc1ccc(-c2cc(N(C)C(C)C)ncn2)cc1C(F)(F)F | 740 nM | – |
